Results published in patent US20080032418A1, “Cell Free Assay Systems For Identifying A Substance Of Interest” (priority 2003, published 2008).

How the values were obtained:
[1] = biological target: T1, serotonin receptor 5HT2C with a C-terminal His tag (Rattus norvegicus, UniProt P08909); assay: immunoprecipitation binding assay (anti-MBP, protein A beads, imidazole elution, fluorescence); conditions: receptor 0.2 μM, perylene 0.4 μM, overnight at 4° C.; FIGS. 5-7
T1 construct: made in house; host or cells: bacteria (E. coli is named as the preferred host for the MBP system)
T1 sequence (P08909 with tags, fused parts or gaps): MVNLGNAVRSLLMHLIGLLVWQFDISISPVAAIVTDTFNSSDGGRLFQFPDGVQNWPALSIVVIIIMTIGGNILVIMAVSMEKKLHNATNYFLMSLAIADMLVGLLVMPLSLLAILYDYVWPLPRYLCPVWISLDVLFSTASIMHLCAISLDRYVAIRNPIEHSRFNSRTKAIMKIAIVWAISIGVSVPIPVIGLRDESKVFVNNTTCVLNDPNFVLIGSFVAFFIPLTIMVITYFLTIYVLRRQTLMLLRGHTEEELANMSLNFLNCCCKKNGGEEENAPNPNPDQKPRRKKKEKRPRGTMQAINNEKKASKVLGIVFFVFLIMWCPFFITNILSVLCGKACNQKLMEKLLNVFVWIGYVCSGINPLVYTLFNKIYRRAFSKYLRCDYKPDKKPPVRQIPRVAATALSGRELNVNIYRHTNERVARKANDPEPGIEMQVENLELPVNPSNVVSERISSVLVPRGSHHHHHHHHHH
Description: In these experiments, the affinity purified receptor (0.2 μM), and either compound 1, or control glycine-perylene (0.4 μM), were combined, in a total volume of 0.1 ml, and incubated on a rocking platform overnight, at 4° C. Further controls were provided, by taking samples of the two perylene molecules and treating them in the absence of protein.
All washes were retained for fluorescence measurements.
Perylene molecules were eluted from the bead bound proteins using 0.5M imidazole. Fluorescence of all samples and washes was measured, using a spectrofluorometer, excitation at 480 nm, and emission scan at 500-650 nm. Peak fluorescence was detected at 533-535 nm.

[2] = tested on: any of the receptor molecules described in example 1; conditions: 1.1 μM receptor, 2.5 μM compound 1, overnight at 4° C., Superose 6 gel filtration, excitation 485 nm, emission 535 nm
Description: This example describes the chelation of the compound of example 4 to any of the receptor molecules described in example 1 and purification of the receptor-perylene complexes by gel filtration chromatography.
The receptor was affinity purified, following standard methods, and 1.1 μM of the molecule was combined with 2.5 μM of compound 1, in a total volume of 0.5 ml. The materials were incubated on a rocking platform, overnight, at 4° C. The mixture was then loaded onto a 20 ml column of Superose 6 Prep gel filtration media, and washed with running buffer (20 mM Tris, pH 7.4, 150 mM NaCl, 0.05% maltoside/0.01% CHS), to remove any unbound perylene. A total of 60 separate, 0.5 ml fractions were collected. A portion of each fraction was loaded into 60 wells of a 96 well plate, and fluorescence was measured at an excitation of 485 nm, and emission of 535 nm. Since the fluorescence quantum yield of perylene bound to receptor differs from that of unbound perylene, fluorescence was also measured after dissociating receptor-perylene complexes by adding imidazole to a final concentration of 0.5M to each of the fractions. A portion of each column fraction was loaded onto denaturing polyacrylamide gel, separated by electrophoreses, transferred to PVDF membranes, and receptor protein containing fractions were identified, using anti-MBP antibodies.

CCCCCCC(CCCCCC)N1C(=O)c2ccc3c4ccc5c6c(ccc(c7ccc(c2c37)C1=O)c64)C(=O)N(CCCCC(C(=O)[O-])N(CC(=O)[O-])CC(=O)O)C5=O.[Ni+2] (centres unmarked) [compound 1, N-(1-hexylheptyl)-N′-(nickel (II)-5-(1-carboxyl-1-(N-dicarboxylmethyl)pentyl))perylene-3,4,9,10-tetracarboxylic-diimide]
binding to the receptor (fluorescence following overnight elution with 0.5M imidazole) [1]: bound to the receptor and required elution
portion of the total perylene bound to receptor protein [2]: roughly one-third
